This experiment relates to RAW264.7. Kind of experiment: Antiresorptive activity in mouse RAW264.7 cells assessed as inhibition of tartrate-resistant acid phosphatase activity at 60 uM. Also on record: scale not given: the % may be the effect or the level left.

Structures are written as SMILES.

Take `CCCCC/C(=N/S(=O)(=O)c1ccc(C)cc1)N1C(C)CCCC1C` (stereo unspecified): the Activity is reported as 0%.
